Bounds are passed on as bounds.

One series has as its target T1, recombinant human FAP (Homo sapiens, UniProt Q12884).
T1 construct: purchased Biolegend
T1 sequence (Q12884 1-760): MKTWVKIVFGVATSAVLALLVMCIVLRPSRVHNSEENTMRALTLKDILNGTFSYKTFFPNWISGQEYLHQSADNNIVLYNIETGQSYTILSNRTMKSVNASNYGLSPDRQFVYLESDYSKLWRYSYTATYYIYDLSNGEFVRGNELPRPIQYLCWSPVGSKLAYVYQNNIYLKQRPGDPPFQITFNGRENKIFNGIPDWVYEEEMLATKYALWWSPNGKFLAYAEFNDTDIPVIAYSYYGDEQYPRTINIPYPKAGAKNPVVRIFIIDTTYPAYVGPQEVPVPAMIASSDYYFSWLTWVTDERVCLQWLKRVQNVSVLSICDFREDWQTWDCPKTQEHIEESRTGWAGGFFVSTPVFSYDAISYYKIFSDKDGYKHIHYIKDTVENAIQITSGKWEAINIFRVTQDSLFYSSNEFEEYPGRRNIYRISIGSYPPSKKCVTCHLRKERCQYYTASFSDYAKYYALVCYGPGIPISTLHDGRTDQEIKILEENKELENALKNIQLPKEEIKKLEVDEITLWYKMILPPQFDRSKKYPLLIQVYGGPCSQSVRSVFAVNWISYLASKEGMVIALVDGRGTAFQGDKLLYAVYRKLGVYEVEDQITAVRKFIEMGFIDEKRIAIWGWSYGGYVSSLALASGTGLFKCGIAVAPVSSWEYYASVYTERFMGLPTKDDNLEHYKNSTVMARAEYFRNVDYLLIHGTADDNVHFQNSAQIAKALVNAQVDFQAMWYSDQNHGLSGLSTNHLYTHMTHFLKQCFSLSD
Nature of the series: In vitro FAP fluorescence enzyme-inhibition assay (Suc-Gly-Pro-AMC substrate). The settings on record: n = 3. Format: biochemical. As for the experimental part:
The binding affinities of Ga-AV01017, Ga-AV01030, Ga-AV01038, Ga-HTK03041, and Ga-FAPI-04 to human FAP were measured by an enzyme-inhibition assay using Suc-Gly-Pro-AMC as the FAP substrate. The human FAP enzymatic activity on the substrate was inhibited by Ga-complexed standards in a dose-dependent manner (Figure 3B).
The half maximal inhibitory concentration (IC50) values of the tested compounds for FAP were measured by in vitro enzymatic assay. The recombinant human FAP (Biolegend; 0.2 µg/mL, 50 µL) was added into a costar 96-well plate. PBS and varied concentrations (0.2 pM to 2 µM) of tested nonradioactive Ga-complexed standards were added to each well (in duplicate) containing the recombinant human FAP. After being incubated for 30 min at 37 °C, 50 µL of Suc-Gly-Pro-AMC (2 µM, Bachem) was added to each well. The fluorescent signals were acquired at 15, 30, 45, and 60 min using a FlexStation 3 Multi-Mode Microplate Reader with excitation at 380 nm and emission at 460 nm. The IC50(FAP) was calculated using a “nonlinear fit model” built-in model in GraphPad Prism 7.02 software

For series [1], the system named is PSMA-expressing LNCaP tumor xenografts. Nature of the series: Ex vivo biodistribution in LNCaP tumor-bearing mice. The settings on record: 1 h post injection, range over LNCaP and HEK293T:hFAP tumor-bearing mice. On the procedure:
Biodistribution studies were conducted at 1 h post injection with ^68Ga-labeled AV01017, AV01030, AV01038, HTK03041, and FAPI-04 in LNCaP tumor-bearing mice (Figure 5 and Table S4, Supplementary Materials). The results were consistent with the observation from their PET images. Tumor uptake values for [^68Ga]Ga-AV01017, [^68Ga]Ga-AV01030, [^68Ga]Ga-AV01038, [^68Ga]Ga-HTK03041, and [^68Ga]Ga-FAPI-04 were 4.38 ± 0.55, 5.17 ± 0.51, 4.25 ± 0.86, 23.1 ± 6.11, and 3.15 ± 1.43 %ID/g, respectively. […] Although not statistically significant, the bispecific tracers with a longer linker tend to have a higher blood uptake value (9.24 ± 1.55 %ID/g for [^68Ga]Ga-AV01017; 7.07 ± 0.31%ID/g for [^68Ga]Ga-AV01038; 5.75 ± 0.59 %ID/g for [^68Ga]Ga-AV01030) and a lower tumor-to-blood ratio (0.48 ± 0.11 for [^68Ga]Ga-AV01017; 0.60 ± 0.13 for [^68Ga]Ga-AV01038; 0.89 ± 0.03 for [^68Ga]Ga-AV01030).
(§1) Imaging and biodistribution studies were performed using male NOD.Cg-Rag1tm1Mom Il2rgtm1Wjl/SzJ (NRG) mice following previously published procedures. The experiments were conducted according to the guidelines established by the Canadian Council on Animal Care and approved by Animal Ethics Committee of the University of British Columbia. The mice were briefly sedated by inhalation of 2.5% isoflurane in oxygen, and 100 µL LNCaP (2 × 10^5 cells) or HEK293T:hFAP (8.5 × 10^6 cells) cells were inoculated subcutaneously behind the left shoulder. When the tumor grew to 5–8 mm in diameter over 3–4 weeks and 4–5 weeks for HEK293T:hFAP and LNCaP tumors, respectively, the mice were used for PET/CT imaging and biodistribution studies.
(§2) For biodistribution studies, the mice were injected with the radiotracer (~2–4 MBq) as described above. At 1 h post injection, the mice were euthanized by CO2 inhalation. Blood was withdrawn by cardiac puncture, and organs/tissues of interest were collected, weighed, and counted using a Perkin Elmer (Waltham, MA, USA) Wizard2 2480 automatic gamma counter.

Another series concerns the target T2, PSMA (Homo sapiens, UniProt Q04609).
T2 construct: endogenous in cells; host or cells: LNCaP cells (ATCC via Cedarlane)
Nature of the series: In vitro PSMA competition binding assay ([^18F]DCFPyL displacement on LNCaP cells). The settings on record: radioligand [^18F]DCFPyL, n = 3. On the procedure:
The binding affinities of Ga-AV01017, Ga-AV01030, Ga-AV01038, Ga-HTK03041, and Ga-FAPI-04 to PSMA were measured by a cell-based binding assay using PSMA-expressing LNCaP prostate cancer cells. The nonradioactive Ga-complexed standards, except Ga-FAPI-04, inhibited the binding of [^18F]DCFPyL to LNCaP cells in a dose-dependent manner (Figure 3A).
The PSMA binding assays were conducted following previously published procedures using LNCaP cells and [^18F]DCFPyL as the radioligand [34, 42, 43]. Data analyses of IC50 were performed using the nonlinear regression algorithm of GraphPad Prism 7 (San Diego, CA, USA) software.

Series [2] relates to PSMA-expressing LNCaP tumor xenografts. On the set-up: method as in earlier work. The conditions noted are these: LNCaP tumor-bearing mice, 1 h post injection, reported previously, ref 4 (supplement); cited from earlier work.
For series [3], the system named is FAP-expressing HEK293T:hFAP tumor xenografts. Nature of the series: Ex vivo biodistribution in HEK293T:hFAP tumor-bearing mice. The settings on record: 1 h post injection, mean ± SD, n = 4. On the procedure:
Biodistribution studies were also conducted at 1 h post injection with [^68Ga]Ga-AV01017, [^68Ga]Ga-AV01030, [^68Ga]Ga-AV01038, [^68Ga]Ga-HTK03041, and [^68Ga]Ga-FAPI-04 in HEK293T:hFAP tumor-bearing mice (Figure 6 and Table S5, Supplementary Materials). Tumor uptake values for [^68Ga]Ga-AV01017, [^68Ga]Ga-AV01030, [^68Ga]Ga-AV01038, [^68Ga]Ga-HTK03041, and [^68Ga]Ga-FAPI-04 were 2.99 ± 0.37, 3.69 ± 0.81, 3.64 ± 0.83, 0.62 ± 0.19, and 12.5 ± 2.00 %ID/g, respectively. There was a very low tumor uptake in mice injected with [^68Ga]Ga-HTK03041, showing very minimal FAP expression in this tumor model. The uptake levels of these tracers on the major organs and tissues are consistent with the trends observed in the LNCaP tumor-baring mice (Figure 5 and Supplemental Table S4).
as §1, §2

T2 sequence (Q04609 whole entry): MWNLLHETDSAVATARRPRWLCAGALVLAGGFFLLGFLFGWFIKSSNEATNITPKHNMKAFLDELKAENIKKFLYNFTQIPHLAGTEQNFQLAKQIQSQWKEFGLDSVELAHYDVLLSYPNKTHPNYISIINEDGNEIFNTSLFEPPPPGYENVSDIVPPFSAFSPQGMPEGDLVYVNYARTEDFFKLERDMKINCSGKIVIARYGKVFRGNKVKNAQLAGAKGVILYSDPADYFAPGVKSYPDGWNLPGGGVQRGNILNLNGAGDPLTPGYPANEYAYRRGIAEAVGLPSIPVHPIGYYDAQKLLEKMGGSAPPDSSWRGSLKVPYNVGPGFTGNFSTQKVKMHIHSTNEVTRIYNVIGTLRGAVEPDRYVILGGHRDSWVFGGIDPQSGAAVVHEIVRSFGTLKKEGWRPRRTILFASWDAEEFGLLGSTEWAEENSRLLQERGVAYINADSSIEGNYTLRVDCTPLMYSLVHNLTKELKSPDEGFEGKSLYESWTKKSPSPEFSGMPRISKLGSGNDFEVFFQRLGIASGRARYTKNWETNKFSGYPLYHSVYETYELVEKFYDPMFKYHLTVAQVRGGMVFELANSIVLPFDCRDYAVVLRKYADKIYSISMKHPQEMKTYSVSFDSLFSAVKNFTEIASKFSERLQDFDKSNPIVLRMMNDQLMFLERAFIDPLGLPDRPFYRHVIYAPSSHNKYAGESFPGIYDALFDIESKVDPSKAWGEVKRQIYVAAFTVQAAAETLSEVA

As for `N#C[C@@H]1CC(F)(F)CN1C(=O)CNC(=O)c1ccnc2ccc(OCCCc3cn(CC(=O)N[C@@H](CCCCNC(=O)CN4CCN(CC(=O)[O-])CCN(CC(=O)[O-])CCN(CC(=O)[O-])CC4)C(=O)NCC(=O)NC[C@H]4CC[C@H](C(=O)N[C@@H](Cc5c6ccccc6cc6ccccc56)C(=O)NCCCC[C@H](NC(=O)N[C@@H](CCC(=O)O)C(=O)O)C(=O)O)CC4)nn3)cc12.[Ga+3]` [Ga-AV01017], the half-inhibitory concentration (IC50) on recombinant human FAP came out at 1.25 ± 0.39 nM; on PSMA, 25.2 ± 10.7 nM. In addition, the “Blood uptake values (range over both tumor models)” value in series [1] is listed as 9.24–11.9 %ID/g.
Consider `N#C[C@@H]1CC(F)(F)CN1C(=O)CNC(=O)c1ccnc2ccc(-c3cn(CC(=O)N[C@@H](CCCCNC(=O)CN4CCN(CC(=O)[O-])CCN(CC(=O)[O-])CCN(CC(=O)[O-])CC4)C(=O)NCC(=O)NC[C@H]4CC[C@H](C(=O)N[C@@H](Cc5c6ccccc6cc6ccccc56)C(=O)NCCCC[C@H](NC(=O)N[C@@H](CCC(=O)O)C(=O)O)C(=O)O)CC4)nn3)cc12.[Ga+3]` [Ga-AV01030], for which the IC50 was found to be 2.74 ± 0.33 nM at recombinant human FAP and 71.6 ± 23 nM on PSMA. Moreover, the “Blood uptake values (range over both tumor models)” value in series [1] was 5.68–5.75 %ID/g.
In turn, `N#C[C@@H]1CC(F)(F)CN1C(=O)CNC(=O)c1ccnc2ccc(OCCCN3CCN(C(=O)CN4CCN(CC(=O)[O-])CCN(CC(=O)[O-])CCN(CC(=O)[O-])CC4)CC3)cc12.[Ga+3]` [Ga-FAPI-04, reference compound] yielded an IC50 on PSMA above 1000 nM.
Take `O=C([O-])CN1CCN(CC(=O)[O-])CCN(CC(=O)NC[C@H]2CC[C@H](C(=O)N[C@@H](Cc3c4ccccc4cc4ccccc34)C(=O)NCCCC[C@H](NC(=O)N[C@@H](CCC(=O)O)C(=O)O)C(=O)O)CC2)CCN(CC(=O)[O-])CC1.[Ga+3]` [Ga-HTK03041, reference compound]: the 50% inhibitory concentration (IC50) on recombinant human FAP turned out to be 2010 ± 585 nM; on PSMA, 0.76 ± 0.12 nM.
In the case of `O=C([O-])CN1CCN(CC(=O)[O-])CCN(CC(=O)NC[C@H]2CC[C@H](C(=O)N[C@@H](Cc3c4ccccc4cc4ccccc34)C(=O)NCCCC[C@H](NC(=O)N[C@@H](CCC(=O)O)C(=O)O)C(=O)O)CC2)CCN(CC(=O)[O-])CC1.[68Ga+3]` [[^68Ga]Ga-HTK03041, reference compound], in series [2], the Blood uptake is given as 1.43 ± 0.30 %ID/g, the Bone uptake was 1.29 ± 0.45 %ID/g, the Brain uptake was 0.10 ± 0.05 %ID/g and the Fat uptake was 2.06 ± 0.59 %ID/g. In addition, in series [2], the Heart uptake is reported as 1.82 ± 0.62 %ID/g, the Kidneys uptake is on record as 170 ± 26.4 %ID/g, the LNCaP tumor uptake was 23.1 ± 6.11 %ID/g and the Liver uptake is 1.38 ± 0.25 %ID/g. In addition, in series [2], the Muscle uptake is 0.75 ± 0.09 %ID/g, the Pancreas uptake is on record as 1.47 ± 0.16 %ID/g, the “Small Intestine uptake” value is 1.14 ± 0.18 %ID/g and the Spleen uptake is recorded as 8.95 ± 3.22 %ID/g. In series [2], the Stomach uptake is listed as 0.41 ± 0.11 %ID/g, the Testes uptake is given as 1.34 ± 0.22 %ID/g, the Thyroid uptake is given as 2.48 ± 0.44 %ID/g and the Tumor/blood uptake ratio is reported as 17.3 ± 7.24. In series [2], the Tumor/bone uptake ratio was 20.1 ± 9.48, the Tumor/kidney uptake ratio was 0.14 ± 0.04 and the Tumor/muscle uptake ratio is reported as 31.6 ± 12.1. For the same compound, in series [3], the Adrenal glands uptake is given as 4.18 ± 0.48 %ID/g, the Blood uptake amounted to 0.71 ± 0.07 %ID/g, the Bone uptake is listed as 0.42 ± 0.11 %ID/g and the Brain uptake is reported as 0.03 ± 0.00 %ID/g. For the same compound, in series [3], the Fat uptake is on record as 0.55 ± 0.12 %ID/g, the “HEK293T:hFAP tumor uptake” value is 0.62 ± 0.19 %ID/g, the Heart uptake is reported as 0.98 ± 0.07 %ID/g and the Kidneys uptake is 68.4 ± 19.2 %ID/g. In series [3], the Lacrimal gland uptake is listed as 0.25 ± 0.33 %ID/g, the “Large Intestine uptake” value is 0.43 ± 0.04 %ID/g, the Liver uptake is 0.72 ± 0.06 %ID/g and the Lungs uptake is 2.43 ± 0.08 %ID/g. In series [3], this compound came in with a Muscle uptake of 0.47 ± 0.03 %ID/g, a Pancreas uptake of 0.71 ± 0.07 %ID/g, a Salivary glands uptake of 2.29 ± 0.16 %ID/g and a Seminal vesicle uptake of 0.32 ± 0.03 %ID/g. Also, in series [3], the “Small Intestine uptake” value is 0.71 ± 0.01 %ID/g, the Spleen uptake is recorded as 8.09 ± 2.37 %ID/g, the Stomach uptake stood at 0.22 ± 0.04 %ID/g and the Testes uptake is 0.60 ± 0.41 %ID/g. Further, in series [3], the Thyroid uptake came to 1.38 ± 0.10 %ID/g, the Tumor/blood uptake ratio turned out to be 0.83 ± 0.54, the Tumor/bone uptake ratio was found to be 1.39 ± 0.58 and the Tumor/kidney uptake ratio was 0.01 ± 0.01. Moreover, the Tumor/muscle uptake ratio in series [3] is listed as 1.22 ± 0.73.

By IC50 is commonly meant the concentration needed to halve the response being measured.

These data come from paper PMC9921851, “Synthesis and Preclinical Evaluation of Three Novel ^68Ga-Labeled Bispecific PSMA/FAP-Targeting Tracers for Prostate Cancer Imaging” (Molecules, 2023).
